Measurements published in patent US20020146411A1, “Anticoagulant agents useful in treatment of thrombosis” (SmithKline Beecham Corporation, priority 1996, published 2002).
“Also recorded” adds a separate entry of the source.

Assays:
[1] = test system: rat carotid artery thrombosis; experiment: Rat carotid artery thrombosis model (FeCl3 injury), Example 3; format: in vivo
Source text: In order to evaluate the efficacy of anti-Factor IX antibodies in prevention of arterial thrombosis, the rat carotid artery thrombosis model as reported by Schumacher et al. in J. Cardio. Pharm. 22, 526-533 (1993) was adapted. This model consists of segmental injury to the carotid endothelium by oxygen radicals generated by FeCl3 solution applied on the surface of the carotid artery.
In brief, rats were anesthetized with pentobarbitone sodium, the jugular vein cannulated for intravenous injections and the left femoral artery cannulated for blood pressure and heart rate monitoring. The carotid artery was isolated by aseptic technique via a surgical incision in the neck and equipped with a magnetic flow probe for blood flow measurement. After a period of stabilization, baseline parameters were established for the following variables: carotid blood flow, arterial pressure, heart rate, activated partial thromboplastin time (aPTT) and prothrombin time (PT). Thereafter, a premeasured Whatman filter paper soaked in 50% FeCl3 solution was placed on the carotid artery for 15 minutes for complete injury of the underlying endothelial cells. After removal of the FeCl3 soaked paper, the experiment was followed to completion over 60 minutes. At the end of the experiment, the carotid thrombus was extracted from the carotid artery and weighed.
All agents were administered 15 minutes prior to the onset of carotid injury. The following treatments were examined and compared to the Factor IX mAb BC2.
1. Heparin: 15, 30, 60 or 120 U/kg bolus, followed by infusion of 0.5, 1, 2 or 4 U/kg/min, respectively over 60 minutes
2. Acetylsalicylic acid (ASA, aspirin): 5 mg/kg bolus
3. Anti-Factor IX mAb BC2: 1, 3 or 6 mg/kg bolus, followed by infusion 0.3, 1, or 2 ug/kg/min, respectively over 60 minutes
4. Heparin: 30U/kg bolus+lU/kg/min+ASA at 5 mg/kg
5. Anti-Factor IX mAb BC2: 1 mg/kg+0.3 ug/kg/min+ASA at 5 mg/kg

BC2 antibody = experiment: BiaCore binding of Factor IX/Factor VII constructs to immobilized BC2; details: for Degree of Binding to BC2: 200 nM construct, 25 mM MOPS pH 7.4, 0.15 M NaCl, 5 mM CaCl2
Description: A library of chimeric constructs composed of sequences of Factor IX spliced into the framework of the homologous protein Factor VII was constructed and used to map the epitope for the Factor IX BC2 mAb. See Cheung et al., Thromb. Res. 80, 419-427 (1995). Binding was measured using a BiaCore 2000 surface plasmon resonance device. The BC2 antibody was coupled directly to the chip using the NHS/EDC reaction. Binding was measured by 2 min of contact time at 20 uL/min with 200 nM of each of the given constructs in 25 mM MOPS, pH 7.4, 0.15 M NaCl, 5 mM CaCl2. Dissociation was monitored for 3 min using the same buffer with no protein. No binding was detected to the wild type construct in the presence of 50 mM EDTA.

CC(=O)Oc1ccccc1C(=O)O [ASA, Acetylsalicylic acid, reference compound]
effect on carotid artery occlusion (FIG. 6) [1]: only a minor effect | effect on thrombus weight (FIG. 7) [1]: only a partial effect | effect on aPTT at 60 minutes (FIG. 4) ([1]; regimens of b146-b150, given 15 minutes before injury): did not significantly increase aPTT

IX K5A: Factor IX having a lysine to alanine substitution at residue 5
Degree of Binding to BC2 (BC2 antibody): exhibit binding to BC2; also recorded: Binds

Plasma IXa: plasma Factor IXa, wild type Factor IX
Degree of Binding to BC2 (BC2 antibody): Binds

Plasma VII: plasma Factor VII
Degree of Binding to BC2 (BC2 antibody): No Binding

VII gla (IX 3-6)/IX: chimeric Factor VII/Factor IX construct
Degree of Binding to BC2 (BC2 antibody): Very Low Binding

VII gla (IX 3-11)/IX: residues 3-11 of Factor IX gla domain within the Factor VII gla domain
Degree of Binding to BC2 (BC2 antibody): exhibit binding to BC2; also recorded: equivalent to wild type Factor IX; also recorded: Binds

VII gla (IX 9-11)/IX: chimeric Factor VII/Factor IX construct
Degree of Binding to BC2 (BC2 antibody): Very Low Binding

VII gla/IX: chimeric Factor VII/Factor IX construct
Degree of Binding to BC2 (BC2 antibody): No Binding

r-IX: recombinant wild type Factor IX
Degree of Binding to BC2 (BC2 antibody): Binds

wild type construct: wild type Factor IX construct used in BC2 epitope mapping
binding to BC2 in the presence of EDTA (BC2 antibody; 50 mM EDTA): No binding
